From patent US11925643B2, “Toll-like receptor 4 (TLR4) inhibitors and use thereof” (MOR RESEARCH APPLICATIONS LTD., priority 2018, dated 2024)
Entries after “also recorded” stand apart in the source; their conditions may differ.

What was measured:
[1] = test system: C57BL mice; experiment: Heart infarct size after LAD ligation (MI mice model); assay type: in vivo
Protocol: (§1) Male wild type mice (C57BL) were purchased from Harlan™ (Jerusalem, Israel). Mice were grown in a temperature-controlled atmosphere, 12/12 hours light/dark cycle and given standard food and tap water. The experiments were performed on 2-3-month-old male mice. All experiments were carried out in accordance with the guidelines of the Animal Care and Use Committee of Tel Aviv University with the Guide for the Care and Use of Laboratory Animals published by the US National Institutes of Health.
(§2) Mice were anesthetized (with a mixture of 100 mg/kg ketamine and 10 mg/kg xylazine), intubated and ventilated with air until spontaneous breathing commenced. The left anterior descending artery (LAD) was ligated with one single stitch, forming an ischemia that can be observed almost immediately. By closing the LAD, no further blood flow is permitted in that area, while the surrounding myocardial tissue is almost not affected. This surgical procedure imitates the pathobiological and pathophysiological aspects occurring in infarction-related myocardial ischemia.
Hearts of mice from tested groups were isolated, and pictures were taken to determine the extent of infarct relative to total area of the left ventricle to thereby determine the extent of cardio-protection by an exemplary decoy peptide. The viable heart sections were put in a 1% solution of 2,3,5-triphenyl tetrazolium chloride (TTC) in phosphate buffer for 10 min at 37° C. TTC stained the viable tissue in red while necrotic tissue remained discolored. Sections were fixed overnight in 4% formaldehyde to enhance the contrast between stained and unstained tissue. The sections were then placed between two cover slips and digitally photographed using a Nikon Coolpix 5000 camera, at a resolution of 1400×960 pixels, and quantified by using ImageJ software. The area of ischemia/infarction (TTC-negative) was presented as a percentage of the entire area of the section.
Myocardial infarction (MI) in animals may be mimicked by a procedure called left anterior descending artery (LAD) ligation, described in Materials and Methods above. A pilot dose response experiment was first conducted. Decoy peptide represented by compound PM6 (0.5, 1.0 and 5.0 mg/kg) or aqueous solution of 40% polyethylene glycol (PEG 600) were administered intravenously (IV) to C57BL mice, 1 hour before LAD ligation. All mice were kept under standard animal facility conditions for 24 hours. The heart infarct size was measured in all three groups.

[2] = test system: C57BL mice; experiment: Serum markers CK, LDH, troponin and GOT after LAD ligation; assay type: in vivo; conditions: 0.3 mg/kg IV one hour after ligation
[3] = test system: TNF-α mRNA; experiment: TNF-α mRNA in mouse myocardium by RT-qPCR after ischemia; assay type: in vivo, mice; conditions: 0.3 mg/kg 1 hour after MI induction
Protocol: Real-time RT-PCR experiments were performed in duplicates on an ABI 7900 instrument (Applied Biosystems™) using Taqman™ Master Mix (Applied Biosystems™). The average threshold cycles (Ct) of the duplicates were used to calculate the relative expression levels of the following genes: TLR4 (Applied Biosystems™ assay primer ID: Mm00569848_m1 Tlr4), TLR2 (assay primer ID: Mm01769726_m1 Tlr2), TNF-α (assay primer ID: Mm00443260_g1 Tnf) and IL-1β (assay primer ID: Mm00434228_m1 II1b) in vitro and in vivo following hypoxia or ischemia, respectively. The reference gene was TBP and the primer used was derived from mouse TATA-box binding protein (Applied Biosystems™ assay primer ID: Mm00446973_m1 Tbp). Amounts of TLR2, TLR4, TNF-α and IL-1β mRNAs in each sample were calculated relative to TBP mRNA, based on the corresponding Cts, as Relative Quantity (RQ) values, and normalized taking as 1 a randomly selected sample of the control group (TBP mRNA). […]
Real time reverse transcriptase PCR (RT-qPCR) was conducted to identify the effect of a disclosed decoy peptide on TLR-mediated induction of the inflammatory cytokine TNF-α. The effect of an exemplary decoy peptide PM6 (0.3 mg/kg; administered 1 hour after MI induction) on TNF-α mRNA expression in mice myocardium was assessed 24 h and 7 days after ischemia induction.

[4] = test system: C57BL mice; experiment: Serum markers CK, LDH, troponin and GOT after LAD ligation; assay type: in vivo
Protocol: as §1, §2
Blood was drawn out from the mice and immediately centrifuged at […] for 10 minutes to isolate the serum, which was obtained from the top portion of the test tube. The serum was mixed with double distilled water (DDW) in a ratio of 1:10 and was ready for assaying. Various markers were observed (CK, LDH & troponin) to determine cardiac damage in the serum.
A dose response experiment was conducted using the experiment design of the pilot experiment. PM6 was given to mice in three doses: 0.05, 0.30 and 1.00 mg/kg. Blood levels of four serum markers were assessed. The levels of three markers CK, LDH and troponin were correlated with MI severity. Troponin is a complex of three regulatory proteins that is integral to muscle contraction in skeletal muscle and cardiac muscle, and serves as a highly specific marker for myocardial infarction or heart muscle cell death. The level of the fourth marker GOT was used as an indicator for liver functions.

[5] = 0.3 mg/kg IV 1 hour before LAD ligation

CCCCCCCCNc1nc(=O)n(Cc2ccccc2)cc1C [PM6, 1-benzyl-5-methyl-4-(octylamino)pyrimidin-2(1H)-one]
heart infarct size ([1]; 0.05 mg/kg IV 1 hour before LAD ligation): significantly reduced | infarct size ([1]; 0.3 mg/kg IV 1 hour after ligation, 7 days): significantly reduced | heart infarct size ([1]; 0.30 mg/kg IV 1 hour before LAD ligation): significantly reduced; also recorded: significantly effective | heart infarct size ([1]; 1.00 mg/kg IV 1 hour before LAD ligation): significantly reduced | infarct size ([1]; pilot, 0.5 mg/kg IV 1 hour before LAD ligation, 24 hours): significant effect | blood level of CK ([2]; 1 week): very impressive down regulation | blood level of LDH ([2]; 1 week): very impressive down regulation | level of GOT ([2]; 24 h and 7 days): did not changed dramatically | blood level of CK ([2]; 24 hours): very impressive down regulation | blood level of LDH ([2]; 24 hours): very impressive down regulation | TNF-α mRNA level in myocardium ([3]; 24 h): significant reduction | TNF-α mRNA level in myocardium ([3]; 7 days): significant reduction | serum CK level [4, 5]: significantly reduced; also recorded: significant reduction | serum LDH level [4, 5]: significantly reduced; also recorded: significant reduction | serum troponin level [4, 5]: significantly reduced; also recorded: significant reduction | GOT level (liver function) ([4]; 0.05, 0.30 and 1.00 mg/kg IV 1 hour before LAD ligation): did not affect
